Measured values reported in US3994882A, “Nitrofuran derivatives, process for the preparation thereof and compositions containing same as active ingredient” (Kabushiki Kaisha Ueno Seiyaku Oyo Kenkyujo, priority 1974, dated 1976).
Read-outs that look alike come from different tables or passages of the source.

Legend:
Type in all cases: in vivo
[1] = system: Erysiperothrix rhusiopatiae Agata; assay: Cure of mice infected with Erysiperothrix rhusiopatiae (Table 5); conditions: Mus musculus, 168 h, observed 7 days, read-out: ED50 when used with Erysiperothrix rhusiopatiae
Experimental: Mice of body weight about 20 grams were used, and 0.2 ml of a culture liquid obtained by cultivating Erysiperothrix rhusiopatiae Agata for 24 hours at 37° C. in a 10% calf serum TSB added culture medium (amount of inoculated germs 4.0 × 10^7) was injected abdominally.

vibroid ulcers = assay: Medicinal bath of young yellowtail with disease seeming to be vibroid ulcers; conditions: of 30 fishes; 10 ppm seawater bath 10 minutes; reared further 20 days; untreated group 3 survivors
Experimental: In raising young yellowtail of a body length about 10-15 cm, since a disease seeming to be vibroid ulcers started to appear, 90 of the fishes were collected and divided into three groups. The first group of 30 fishes were reared as heretofore practiced with no change. On the other hand, the second and third groups of 30 fishes were placed for 10 minutes in respectively medicinal baths containing seawater solutions of 10 ppm of the compound of Example 1 ##SPC40##
and the compound of Example 9 ##SPC41##
following which the respective groups of fishes were returned to normal seawater where they were reared for a further 20 days. The number of fishes surviving in the case of the first group was three fishes, whereas in the case of the second and third groups, the numbers of fishes surviving were 26 and 25 fishes, respectively.

[2] = system: Salmonella pullorum NIAH 5159; assay: Effectiveness in preventing infection by Salmonella pullorum in chicks (Table 6); conditions: 7 days, chicks with germs isolated / chicks tested
Experimental: A culture liquid obtained by cultivating Salmonella pullorum NIAH 5159 in a YCCB culture medium for 20 hours at 37° C. was injected into the cloaca of 2-day-old chicks at the rate of 0.2 ml per chick. Nitrofuran derivatives in total amounts indicated below were then mixed with the feed, and the so mixed feed was fed to the chicks for 7 days. The chicks were then sacrificed, and the liver and/or spleen were homogenized, following which the product was cultivated for 48 hours at 37° C. in a YCCB culture medium in customary manner. The expression, "rate of germ isolation" used in the table has the following meaning. For instance, the value 4/10 means the germs were isolated from four out of the ten chicks submitted to the test.

[3] = system: Staphlococcus aureus Kawanabe II; assay: Curative effects on Staphlomycosis of fowl (Table 7); conditions: two weeks, chicks died / chicks tested
Experimental: A culture liquid obtained by cultivation of Staphlococcus aureus Kawanabe II for 20 hours at 37° C. in a heart infusion culture medium was injected intravenously into 3-week-old chicks at the rate of 0.2 ml per chick. Nitrofuran derivatives mixed in amounts indicated below in the feeds were then fed these chicks for two weeks. In the table the expression, "death rate" has the following meaning. For instance, the value 3/9 denotes that three out of the nine chicks submitted to the test died.

| SMILES | ED50 ([1]; oral administration) [mg/kg] | ED50 ([1]; sc, subcutaneous injection) [mg/kg] | Number of fishes surviving (vibroid ulcers) [fishes] | Rate of germ isolation ([2]; 50 ppm in feed) | Rate of germ isolation ([2]; 100 ppm in feed) | Rate of germ isolation ([2]; 200 ppm in feed) | Rate of germ isolation ([2]; 400 ppm in feed) | Rate of germ isolation ([2]; 800 ppm in feed) | Death rate ([3]; 50 ppm in feed) | Death rate ([3]; 100 ppm in feed) | Death rate ([3]; 200 ppm in feed) | Death rate ([3]; 400 ppm in feed) | Death rate ([3]; 800 ppm in feed) |
| --- | --- | --- | --- | --- | --- | --- | --- | --- | --- | --- | --- | --- | --- |
| O=C(NCCO)c1ccc(C=Cc2ccc([N+](=O)[O-])o2)cc1 [Example 1, 2-Para-[2'-(5"-nitro-2"-furyl)-vinyl]-benzoylaminoethanol] | 21.8 | 50 | 26 | 4/10 | 4/10 | 3/10 | 2/10 | 0/10 | 3/9 | 2/9 | 2/9 | 2/9 | 1/9 |
| O=C(NCC(O)CO)c1ccc(C=Cc2ccc([N+](=O)[O-])o2)cc1 (centres unmarked) [Example 9, 3-Para-[2'-(5"-nitro-2"-furyl)-vinyl]-benzoylamino-1,2-propanediol] | 25.5 | 42.1 | 25 | 4/10 | 4/10 | 3/10 | 2/10 | 1/10 | 3/9 | 2/9 | 2/9 | 2/9 | 2/9 |
